Two substances from patent US11840686B2, “Modulation of prekallikrein (PKK) expression” (Ionis Pharmaceuticals, Inc., priority 2013, dated 2023) can be followed below.

One data set concerns C1-INH mRNA. The experiment in a line: C1-INH mRNA in liver of mice treated with ISIS 461756 (Example 18). The data set is classed as in vivo, mouse. Particulars: for Percent inhibition of C1-INH mRNA expression compared to the untreated PBS control: liver, all groups ISIS 461756 25 mg/kg/wk, pretreatment PBS or oligonucleotide 80 mg/kg/wk sc 3 weeks. The protocol:
(§1) Vascular permeability induced by ISIS 461756, an antisense oligonucleotide which targets murine C1 inhibitor mRNA, increases vascular permeability in mice and replicates the pathology of hereditary angioedema. The effect of ISIS 482584 on this model was evaluated.
(§2) One group of 8 mice was treated with 40 mg/kg ISIS 482584 administered subcutaneously twice a week for 3 weeks (weekly dose of 80 mg/kg). A second group of 8 mice was treated with 40 mg/kg of the control oligonucleotide, ISIS 141923, administered subcutaneously twice a week for 3 weeks (weekly dose of 80 mg/kg). A third group of 8 mice was treated with PBS administered subcutaneously twice a week for 3 weeks. On day 14, all the groups were treated with 12.5 mg/kg ISIS 461756 administered subcutaneously twice a week for 3 weeks (weekly dose of 25 mg/kg). A control group of mice was treated with PBS administered subcutaneously twice a week for 3 weeks but was not administered ISIS 461756.
(§3) At the end of the treatment period, all the groups were injected with 30 mg/kg of Evans Blue solution into the tail vein. The mice were sacrificed 30 min after the Evans Blue solution administration and colons, feet, ears, and intestines were harvested. The liver was also harvested for RNA analysis.
(§4) RNA was isolated from the liver for RT-PCR analysis of C1-INH and PKK mRNAs. The primer probe set for C1-INH is RTS3218 (forward sequence […], designated herein as SEQ ID NO: 2234; reverse sequence […], designated herein as SEQ ID NO: 2235; probe sequence […], designated herein as SEQ ID NO: 2236). The primer probe set for PKK is RTS3287 (forward sequence […], designated herein as SEQ ID NO: 2237; reverse sequence […], designated herein as SEQ ID NO: 2238; probe sequence […], designated herein as SEQ ID NO: 2239). The results are presented in Table 79 as percent inhibition compared to the PBS control not treated with ISIS 461756.

For another data set, the system named is PKK mRNA. Nature of the data set: PKK mRNA in liver of mice treated with ISIS 461756 (Example 18). The data set is classed as in vivo, mouse. As to conditions: liver; all groups ISIS 461756 25 mg/kg/wk; pretreatment PBS or oligonucleotide 80 mg/kg/wk sc 3 weeks. The protocol:
as §1, §2, §3, §4

Data set [1] has as its system vascular permeability induced by ISIS 461756. Nature of the data set: C1-INH antisense oligonucleotide-induced vascular permeability, Evans Blue OD600 (Example 18). The data set is classed as in vivo, mouse. As to conditions: Evans Blue OD600; all groups ISIS 461756 25 mg/kg/wk; pretreatment PBS or oligonucleotide 80 mg/kg/wk. The protocol:
as §1, §2, §3
The harvested tissues from the feet, colon, and intestines were placed in formamide solution overnight to leach out the Evans Blue dye. The formamide solution containing feet tissue was heated to 55° C. and left overnight. The color intensity of the dye-infused formamide solution was then measured at OD600 nm. The data is presented in Table 80 as percent increase or reduction compared to the PBS control not treated with ISIS 461756.

Data set [2] has as its system captopril and ISIS 461756-induced vascular permeability. Nature of the data set: Evans Blue vascular permeability in captopril and ISIS 461756-induced angioedema mouse models (Example 11). The data set is classed as in vivo. As to conditions: captopril Yes, ISIS 461756 Yes; ISIS oligonucleotides 40 mg/kg sc twice a week 4 weeks; HOE-140 30 μg ip.
Description: Hereditary angioedema (HAE) is characterized by local swelling and increase in vascular permeability in subcutaneous tissues (Morgan, B. P. N. Engl. J. Med. 363: 581-83, 2010). It is caused by a deficiency of the C1 inhibitor, a protein of the complement system. Two mouse models were used in this study including an established mouse model of C1-INH deficiency and a captopril-induced edema model, both of which cause vascular permeability, a hallmark of HAE. Reversal of vascular permeability is accompanied by increased plasma levels of high molecular weight kininogen (HMWK).
In the first model, angioedema was induced by treatment with Captopril, a known antihypertensive agent, which increases vascular permeability in mice and replicates the pathology of hereditary angioedema.
In the second model, angioedema was induced by treatment with ISIS 461756, an antisense oligonucleotide which targets murine C1 inhibitor mRNA, which increases vascular permeability in mice and replicates the pathology of hereditary angioedema. ISIS 461756 (SEQ ID NO: 2245; […]) is a 5-10-5 MOE gapmer targeting nucleosides 1730-1749 of NM_009776.3 (SEQ ID NO: 2243).
The effect of HOE-140 and ISIS 482584, an antisense oligonucleotide inhibitor of PKK, were evaluated in the Captopril and ISIS 461756-induced mouse models of vascular permeability. Some of the murine groups were treated with HOE-140, a selective antagonist of the bradykinin B2 receptor, which blocks vasodilation and vascular permeability (Cruden and Newby, Expert Opin. Pharmacol. 9: 2383-90, 2008). Other mice were treated with ISIS 482584, which inhibits PKK mRNA expression. The effect of treatment with HOE-140 was compared with the effect of treatment with ISIS 482584.
Group 1 consisted of 4 C57BL/6J-Tyrc-2J mice treated with PBS administered subcutaneously twice a week for 4 weeks. No other treatment was administered to Group 1 which served as a control group to measure the basal level of vascular permeability.
Group 2 consisted of 8 C57BL/6J-Tyrc-2J mice treated with PBS administered subcutaneously twice a week for 4 weeks. At the end of the treatment, the mice were intraperitoneally administered 20 μg of captopril. Group 2 served as a PBS control group for captopril-induced vascular permeability.
(§5) Group 3 consisted of 8 C57BL/6J-Tyrc-2J mice treated with PBS administered subcutaneously twice a week for 4 weeks. On day 14, the mice were treated with 50 mg/kg of the antisense oligonucleotide targeting C1 inhibitor, ISIS 461756, administered subcutaneously twice a week for 2 weeks. At the end of the treatment period, the mice were intraperitoneally administered 20 μg of captopril. Group 3 served as a PBS control group for captopril and ISIS 461756-induced vascular permeability.
Group 4 consisted of 8 C57BL/6J-Tyrc-2J mice treated with PBS administered subcutaneously twice a week for 4 weeks. On day 14, the mice were treated with 50 mg/kg of the antisense oligonucleotide targeting C1 inhibitor, ISIS 461756, administered subcutaneously twice a week for 2 weeks. At the end of the treatment period, the mice were intraperitoneally administered 20 μg of captopril. The mice were then also intraperitoneally administered 30 μg of HOE-140. Group 4 served as a positive control for inhibition of vascular permeability with HOE-140.
as §5, with “5” for “3”, “40 mg/kg of control oligonucleotide ISIS 141923, a 5-10-5 MOE gapmer with no known murine target, ([…]; SEQ ID NO: 2246)” for “PBS”, “a” for “a PBS”, “permeability. […]” for “permeability.”

e = 2'-O-(2-methoxyethyl) (MOE); d = 2'-deoxy (DNA)

In the case of “ISIS 461756: 5-10-5 MOE gapmer which targets murine C1 inhibitor mRNA, AAAGTGGTTGATACCCTGGG; SEQ ID NO: 2245 (sugars from the 5' end e5 d10 e5, backbone and methylation of C not given here)”, the “Percent inhibition of C1-INH mRNA expression compared to the untreated PBS control” value in the data set on C1-INH mRNA is reported as 76%. Besides, the “C1-INH mRNA expression” value in the data set on C1-INH mRNA (mouse liver, 12.5 mg/kg ISIS 461756 s.c. twice a week) is given as “significantly reduced C1-INH mRNA expression”. The “Percent inhibition of PKK mRNA expression compared to the untreated PBS control” value with PKK mRNA amounted to 0%. Further, in data set [1], the “Percent change in vascular permeability compared to the untreated PBS control, Colon” value was 13%; the “Percent change in vascular permeability compared to the untreated PBS control, Feet” value turned out to be 70%; the “Percent change in vascular permeability compared to the untreated PBS control, Intestines” value is given as 27%.

Regarding “ISIS 141923: control oligonucleotide, 5-10-5 MOE gapmer with no known murine target, CCTTCCCTGAAGGTTCCTCC; SEQ ID NO: 2246 (sugars from the 5' end e5 d10 e5, backbone and methylation of C not given here) [reference compound]”, in the data set on C1-INH mRNA, the “Percent inhibition of C1-INH mRNA expression compared to the untreated PBS control” value was 79%. In addition, the “Percent inhibition of PKK mRNA expression compared to the untreated PBS control” value in the data set on PKK mRNA was determined as 0%. Besides, in data set [2], the “OD600 nm of Evans Blue dye, Colons” value is 0.44; the “OD600 nm of Evans Blue dye, Ears” value worked out at 0.08; the “OD600 nm of Evans Blue dye, Feet” value was found to be 0.14; the “OD600 nm of Evans Blue dye, Intestines” value amounted to 0.29. Besides, in data set [1], the “Percent change in vascular permeability compared to the untreated PBS control, Colon” value was found to be 2%; the “Percent change in vascular permeability compared to the untreated PBS control, Feet” value stood at 80%; the “Percent change in vascular permeability compared to the untreated PBS control, Intestines” value is listed as 14%.
